Test results taken from patent US7026281B1, “Antagonistic analogs of GH-RH inhibiting IGF-I and -II” (The Administrators of the Tulane Educational Fund, priority 1998, dated 2006).
Square brackets hold non-standard residues; d marks the D form. Peptide text beside a SMILES is read from it. * marks the point of attachment. Phe(4-Cl) = N[C@@H](Cc1ccc(Cl)cc1)C(=O)O; Nle = CCCC[C@H](N)C(=O)O; Abu = CC[C@H](N)C(=O)O; PhAc = O=C(Cc1ccccc1)*

Experiments:
[1] = system: hGH-RH(1–29)NH2 induced GH release; test: Inhibition of GH release in superfused rat pituitary system; format: cell-based; conditions: for Inhibition of GH release (%) 30 min: 1 nM hGH-RH(1–29)NH2 30 min later; for Inhibition of GH release (%) 60 min: 1 nM hGH-RH(1–29)NH2 60 min later; for Inhibition of GH release (%) 90 min: 1 nM hGH-RH(1–29)NH2 90 min later; for Inhibition of GH release (%) 120 min: 1 nM hGH-RH(1–29)NH2 120 min later; for Inhibition of GH release (%) 0 min: 1 nM hGH-RH(1–29)NH2 at 0 min
Protocol: Superfused Rat Pituitary System.
The analogs were tested in vitro in a test described earlier (S. Vigh and A. V. Schally, Peptides 5:241–347, 1984) with modification (Z. Rekasi and A. V. Schally, P.N.A.S. 90:2146–2149, 1993).
Briefly, the cells are preincubated with peptides for 9 minutes (3 mL) at various concentrations. Immediately after the incubation, 1 nM hGH-RH(1–29)NH2 is administered for 3 minutes (1 mL) [0 minute response]. To check the duration of the antagonistic effect of the analogue, 1 nM hGH-RH(1–29)NH2 is applied 30, 60, 90, and 120 minutes later for 3 minutes [30, 60, 90, 120 min responses]. Net integral values of the GH responses are evaluated. GH responses are compared to and expressed as percent of the original GH response induced by 1 nM GH-RH(1–29)NH2. The effect of the new antagonists are compared to that of [Ac-Tyr^1,D-Arg^2]hGH-RH(1–29)NH2, the “Standard antagonist”.
Growth Hormone Radio-immunoassay.
Rat GH levels in aliquots of undiluted and diluted superfusion samples were measured by double-antibody radioimmunoassay using materials supplied by the National Hormone and Pituitary Program, Baltimore, Md. The results of RIA were analyzed with a computer program developed in our institute (V. Csernus and A. V. Schally, in Neuroendocrine Research Methods, Harwood Academic (Greenstein, B. D. ed., London, pp. 71–109, 1991), hereby incorporated by reference. Inter-assay variation was less than 15% and intra-assay variation was less than 10%.

[2] = system: GH release stimulated by hGH-RH(1–29)NH2; test: In vivo inhibition of serum GH response in rats; set-up: species or system rat
Protocol: GH-RH antagonistic effect of the analogs was tested on young male Sprague-Dawley rats (200–250 g). In each experiment, 5 groups of 7 animals each were used. The compounds (80 μg/kg) and GH-RH(1–29)NH2 (3 μg/kg) were dissolved in 5.5% mannitol and given intravenously to the jugular vein of the rats under Nembutal anesthesia. The time elapsed between the administrations of the antagonist and GH-RH varied between groups, according to the following schedule. The first group of animals received GH-RH injection 5 min after the administration of the antagonist; for the second, third and fourth group of animals, the time interval elapsed between the injection of the antagonist and that of GH-RH was 15, 30, and 60 min, respectively. The control group was first injected with the solvent alone instead of the antagonist, followed by a GH-RH injection 5 min later.
0.4 mL blood samples were taken for GH RIA before the administration of the antagonist (“blood0”), and 5 min after the injection of GH-RH (“blood1”). The GH response in each group was calculated as rGH=(GHblood1/GHblood0), mean±S.E.M. of the individual differences. Relative inhibition of GH response (%) in each group treated was calculated as […].

[3] = target: T1, rat pituitary GH-RH receptors (Rattus norvegicus, UniProt Q02644); test: GH-RH radioreceptor binding assay, rat anterior pituitary membrane homogenates; conditions: for Ki: competition with [His1,125I-Tyr10,Nle27]hGH-RH(1–32)NH2; for R.A. (relative affinity compared to Standard antagonist): ratio of Ki values
T1 construct: from tissue; host or cells: anterior pituitary of male Sprague-Dawley rats, crude membrane homogenates
T1 sequence (Q02644 23-464): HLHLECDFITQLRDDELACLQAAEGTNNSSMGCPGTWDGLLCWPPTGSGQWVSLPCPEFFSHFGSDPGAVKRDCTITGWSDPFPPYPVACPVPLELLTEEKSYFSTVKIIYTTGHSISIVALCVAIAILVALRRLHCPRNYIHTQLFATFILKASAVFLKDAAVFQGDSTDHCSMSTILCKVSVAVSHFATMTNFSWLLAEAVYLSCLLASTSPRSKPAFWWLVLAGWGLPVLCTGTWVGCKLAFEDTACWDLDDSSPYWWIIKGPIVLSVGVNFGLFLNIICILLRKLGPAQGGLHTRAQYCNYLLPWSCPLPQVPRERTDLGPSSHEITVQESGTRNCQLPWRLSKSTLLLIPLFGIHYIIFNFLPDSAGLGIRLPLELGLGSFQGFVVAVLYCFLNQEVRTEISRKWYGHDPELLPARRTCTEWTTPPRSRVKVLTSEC
Protocol: GH-RH Binding Assay. A sensitive radioreceptor binding assay was developed to determine the binding characteristics of the antagonists of GH-RH (G. Halmos, A. V. Schally et al., Receptor 3, 87–97, 1993), hereby incorporated by reference. The assay is based on binding of labelled [His^1,Nle^27]hGH-RH(1–32)NH2 to rat anterior pituitary membrane homogenates. Iodinated derivatives of [His^1,Nle^27]hGH-RH(1–32)NH2 are prepared by the chloramine-T method (F. C. Greenwood et al., Biochemistry 89:114–123, 1963), hereby incorporated by reference. Pituitaries from male Sprague-Dawley rats (250–300 g) are used to prepare crude membranes. For saturation binding analyses, membrane homogenates are incubated with at least 6 concentrations of [His^1,^125I-Tyr^10,Nle^27]hGH-RH(1–32) NH2, ranging from 0.005 to 0.35 nM in the presence or absence of excess unlabelled peptide (1 μM).
The pellet is counted for radioactivity in a γ-counter. The affinities of the antagonist peptides tested to rat pituitary GH-RH receptors are determined in competitive binding experiments. The final binding affinities are estimated by Ki (dissociation constant of the inhibitor-receptor complex) and are determined by the Ligand PC and McPherson computer programs of Munson and Rodbard (P. J. Munson and D. Rodbard, Anal. Biochem. 107. 220–239, 1980). Relative affinities compared to [Ac-Tyr^1,D-Arg^2]hGH-RH(1–29)NH2, the Standard antagonist, are calculated as the […].

| SMILES | Inhibition of GH release (%) 30 min ([1]; antagonist 30 nM) [%] | Inhibition of GH release (%) 60 min ([1]; antagonist 30 nM) [%] | Inhibition of GH release (%) 90 min ([1]; antagonist 30 nM) [%] | Inhibition of GH release (%) 120 min ([1]; antagonist 30 nM) [%] | Inhibition of GH release (%) 0 min ([1]; antagonist 30 nM) [%] | Inhibition of the GH release stimulated by hGH-RH(1–29)NH2 (in words) ([2]; 80 μg/kg i.v., rats) | Relative inhibition % of GH response ([2]; antagonist 80 μg/kg i.v. 5 min before GH-RH) [%] | Relative inhibition % of GH response ([2]; antagonist 80 μg/kg i.v. 15 min before GH-RH) [%] | GH response mean ± S.E.M. ([2]; antagonist 80 μg/kg i.v. 15 min before GH-RH 3 μg/kg) | Relative inhibition % of GH response ([2]; antagonist 80 μg/kg i.v. 30 min before GH-RH) [%] | GH response mean ± S.E.M. ([2]; antagonist 80 μg/kg i.v. 30 min before GH-RH 3 μg/kg) | Relative inhibition % of GH response ([2]; antagonist 80 μg/kg i.v. 60 min before GH-RH) [%] | GH response mean ± S.E.M. ([2]; antagonist 80 μg/kg i.v. 60 min before GH-RH 3 μg/kg) | GH response mean ± S.E.M. ([2]; rGH=GHblood1/GHblood0, antagonist 80 μg/kg i.v. 5 min before GH-RH 3 μg/kg) | Ki [3] [nM] | R.A. (relative affinity compared to Standard antagonist) [3] | Inhibition of GH release (%) 30 min ([1]; antagonist 100 nM) [%] | Inhibition of GH release (%) 60 min ([1]; antagonist 100 nM) [%] | Inhibition of GH release (%) 0 min ([1]; antagonist 100 nM) [%] |
| --- | --- | --- | --- | --- | --- | --- | --- | --- | --- | --- | --- | --- | --- | --- | --- | --- | --- | --- | --- |
| CCCC[C@H](NC(=O)[C@@H](NC(=O)[C@H](CC(=O)O)NC(=O)[C@H](CCC(N)=O)NC(=O)[C@H](CC(C)C)NC(=O)[C@H](CC(C)C)NC(=O)[C@H](CCCCN)NC(=O)[C@H](CCCNC(=N)N)NC(=O)[C@H](C)NC(=O)[C@H](CO)NC(=O)[C@H](CC(C)C)NC(=O)[C@H](CCC(N)=O)NC(=O)[C@H](CC)NC(=O)[C@H](CC(C)C)NC(=O)[C@@H](NC(=O)[C@H](CCCCN)NC(=O)[C@H](CCCNC(=N)N)NC(=O)[C@H](Cc1ccc(OC)cc1)NC(=O)[C@H](CO)NC(=O)[C@H](CC(N)=O)NC(=O)[C@@H](NC(=O)[C@H](Cc1ccc(Cl)cc1)NC(=O)[C@@H](NC(=O)[C@H](C)NC(=O)[C@H](CC(=O)O)NC(=O)[C@@H](CCCNC(=N)N)NC(=O)[C@H](Cc1ccc(O)cc1)NC(=O)Cc1ccccc1)[C@@H](C)CC)[C@@H](C)O)C(C)C)[C@@H](C)CC)C(=O)N[C@@H](CO)C(=O)N[C@H](CCCNC(=N)N)C(N)=O [Peptide 16, [PhAc^0, D-Arg^2, Phe(pCl)^6, Tyr(Me)^10, Abu^15, Nle^27, D-Arg^29]hGH-RH(1–29)NH2] (PhAc-Y[dR]DAI[Phe(4-Cl)]TNSY(Me)RKVL[Abu]QLSARKLLQDI[Nle]S[dR]-NH2) | 87 | 83 | 56 | 65 | 65 | strong and long-lasting inhibition | 77 | 70 | 3.44 ± 0.62 | 48 | 5.24 ± 1.36 | 0 | 9.19 ± 1.89 | 2.89 ± 0.65 | 0.07 | 42 |  |  |  |
| CCCC[C@H](NC(=O)[C@H](CC(N)=O)NC(=O)[C@@H](NC(=O)[C@H](Cc1ccc(Cl)cc1)NC(=O)[C@@H](NC(=O)[C@H](C)NC(=O)[C@H](CC(=O)O)NC(=O)[C@@H](CCCNC(=N)N)NC(=O)[C@H](Cc1ccc(O)cc1)NC(=O)Cc1ccccc1)[C@@H](C)CC)[C@@H](C)O)C(=O)N[C@@H](Cc1ccc(O)cc1)C(=O)N[C@@H](CCCNC(=N)N)C(=O)N[C@@H](CCCCN)C(=O)N[C@H](C(=O)N[C@@H](CC(C)C)C(=O)N[C@@H](CC)C(=O)N[C@@H](CCC(N)=O)C(=O)N[C@@H](CC(C)C)C(=O)N[C@@H](CO)C(=O)N[C@@H](C)C(=O)N[C@@H](CCCNC(=N)N)C(=O)N[C@@H](CCCCN)C(=O)N[C@@H](CC(C)C)C(=O)N[C@@H](CC(C)C)C(=O)N[C@@H](CCC(N)=O)C(=O)N[C@@H](CC(=O)O)C(=O)N[C@H](C(=O)N[C@@H](CCCC)C(=O)N[C@@H](CO)C(=O)N[C@H](CCCNC(=N)N)C(N)=O)[C@@H](C)CC)C(C)C [Peptide 12, [PhAc^0, D-Arg^2, Phe(pCl)^6, Nle^9, Abu^15, Nle^27, D-Arg^29]hGH-RH(1–29)NH2] (PhAc-Y[dR]DAI[Phe(4-Cl)]TN[Nle]YRKVL[Abu]QLSARKLLQDI[Nle]S[dR]-NH2) | 75 | 48 | 52 | 52 | 68 |  |  |  |  |  |  |  |  |  | 0.07 | 42 |  |  |  |
| CC[C@H](C)[C@H](NC(=O)[C@H](C)NC(=O)[C@H](CC(=O)O)NC(=O)[C@@H](CCCNC(=N)N)NC(=O)[C@H](Cc1ccc(O)cc1)NC(C)=O)C(=O)N[C@@H](Cc1ccccc1)C(=O)N[C@H](C(=O)N[C@@H](CC(N)=O)C(=O)N[C@@H](CO)C(=O)N[C@@H](Cc1ccc(O)cc1)C(=O)N[C@@H](CCCNC(=N)N)C(=O)N[C@@H](CCCCN)C(=O)N[C@H](C(=O)N[C@@H](CC(C)C)C(=O)NCC(=O)N[C@@H](CCC(N)=O)C(=O)N[C@@H](CC(C)C)C(=O)N[C@@H](CO)C(=O)N[C@@H](C)C(=O)N[C@@H](CCCNC(=N)N)C(=O)N[C@@H](CCCCN)C(=O)N[C@@H](CC(C)C)C(=O)N[C@@H](CC(C)C)C(=O)N[C@@H](CCC(N)=O)C(=O)N[C@@H](CC(=O)O)C(=O)N[C@H](C(=O)N[C@@H](CCSC)C(=O)N[C@@H](CO)C(=O)N[C@@H](CCCNC(=N)N)C(N)=O)[C@@H](C)CC)C(C)C)[C@@H](C)O [Standard antagonist, [Ac-Tyr^1,D-Arg^2]hGH-RH(1–29)NH2, reference compound] (Ac-Y[dR]DAIFTNSYRKVLGQLSARKLLQDIMSR-NH2) |  |  |  |  |  |  |  |  |  |  |  |  |  |  | 2.94 | 1 | 2.5 | 19 | 62.1 |
